Experimental data: patent US7553821B2, “Methods for selectively modulating survivin apoptosis pathways” (Yale University, priority 2000, dated 2009)
Entries after “also recorded” stand apart in the source; their conditions may differ.

Columns and labels:
[1] = biological target: T1, p34^cdc2-cyclin B1 (Homo sapiens, UniProt P06493); assay: In vitro kinase assay with p34cdc2-cyclin B1; type: biochemical; settings: recombinant protein as substrate, 32P-ATP, 30 min at 30° C., autoradiography
T1 construct: host or cells: baculovirus expression system
Protocol: FIG. 1B. In vitro kinase assay. Wild type (WT) survivin, survivin(T34A) (T34A), or control (H1) were incubated with baculovirus-expressed p34^cdc2-cyclin B1 or cdk2-cyclin E in kinase buffer plus 10 μCi γ-^32P-ATP for 30 min at 30° C. Samples were separated by SDS gel electrophoresis and radioactive bands were visualized by autoradiography. Equal protein loading was confirmed by Coomassie blue staining of the gel.
Transfection experiments. For transient transfection, HeLa cells in C-6 tissue culture plates (Costar, Cambridge, Mass.) at ˜60-70% confluency, were incubated in 1 ml of serum-free OptiMEM medium (Life Technologies, Gaithersburg, Md.) for 20 min, and transfected with 2.5 μg of the various plasmid cDNAs plus 9 μl Lipofectamine (Life Technologies). After a 5 h incubation at 37° C., the mixture was aspirated and substituted with complete growth medium for 48-72 h. To generate stable YUSAC-2 transfectants, a survivin(T34A) cDNA was inserted into the HindIII-SpeI sites of the pTet-splice vector (Dr. D. Schatz, Yale University School of Medicine), downstream of the regulatory sequences of the Tet-resistance operon (TetO). […] Gated GFP-expressing cells were analyzed for DNA content by flow cytometry on a FACSort (Becton Dickinson, San Jose, Calif.) using a Cell Quest software. […]

[2] = tested on: F5.C4 tumors; assay: Effect on established F5.C4 tumors in mice; type: in vivo
Protocol: Error bars indicate standard deviation. Also shown are 5 representative growth curves from 15 animals in which tet was withheld (day 0) upon tumor formation (no symbols).
Next, the effect of survivin Thr^34→Ala on established tumors was assessed. Fifteen mice were injected with F5.C4 cells and tet was provided to permit tumor formation. Once tumors became apparent (20-50 mm^3), tet was withheld from the drinking water and tumors were monitored for 5 weeks. […] Rather, a spectrum of growth curves with some tumors failing to grow at all after tet was withdrawn was observed (FIG. 10A). […] In the two small F5.C4 tumors that formed in the absence of tet (Table I), a similar pattern of apoptotic cell death was seen (not shown).

T1 sequence (P06493 whole entry): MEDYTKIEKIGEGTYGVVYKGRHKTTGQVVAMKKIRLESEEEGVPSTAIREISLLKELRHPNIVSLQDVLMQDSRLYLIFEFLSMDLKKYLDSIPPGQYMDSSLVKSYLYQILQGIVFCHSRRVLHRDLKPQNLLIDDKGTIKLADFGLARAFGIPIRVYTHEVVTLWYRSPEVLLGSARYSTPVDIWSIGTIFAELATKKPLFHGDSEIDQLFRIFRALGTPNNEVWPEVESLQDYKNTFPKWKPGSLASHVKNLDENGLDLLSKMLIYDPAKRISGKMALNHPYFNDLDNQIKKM
T1 sequence (P14635 whole entry partner): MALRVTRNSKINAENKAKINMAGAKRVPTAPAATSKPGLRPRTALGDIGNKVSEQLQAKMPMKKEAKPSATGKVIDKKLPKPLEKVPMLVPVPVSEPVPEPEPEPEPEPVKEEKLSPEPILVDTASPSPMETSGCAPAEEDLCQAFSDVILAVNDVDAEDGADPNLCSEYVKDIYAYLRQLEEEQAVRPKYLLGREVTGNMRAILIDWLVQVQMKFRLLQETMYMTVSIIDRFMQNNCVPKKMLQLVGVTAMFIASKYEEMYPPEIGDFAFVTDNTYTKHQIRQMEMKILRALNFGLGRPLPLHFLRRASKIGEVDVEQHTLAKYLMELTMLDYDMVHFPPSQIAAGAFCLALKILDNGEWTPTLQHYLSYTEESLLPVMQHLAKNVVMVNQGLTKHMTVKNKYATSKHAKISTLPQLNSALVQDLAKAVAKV

In the case of “survivin(T34A): dominant-negative, non-phosphorylatable survivin mutant with Thr34→Ala substitution, expressed from transfected cDNA (also HA- or GFP-tagged)”, the “phosphorylation by p34^cdc2-cyclin B1” value [1] is reported as “abolished phosphorylation”, the “growth of established tumors after tet withdrawal” value ([2]; F5.C4 tumors 20-50 mm^3 at withdrawal, monitored for 5 weeks) is reported as “None of the tumors grew at a rate comparable to F5.C4 tumors in animals maintained on tet” and the “histologic analysis of tumors after transgene induction” value ([2]; F5.C4 tumors, tet withdrawn, listed as survivin Thr^34→Ala) is reported as “massive areas of necrosis and prominent cellular apoptosis by TUNEL; also recorded: lack of normal mitotic figures and the presence of aberrant mitoses”.
